# Measurements reported in PMC6753226, “Highly Efficient Preparation of Cyclic Dinucleotides via Engineering of Dinucleotide Cyclases in Escherichia coli” (Frontiers in Microbiology, 2019).
# pKd: −log10 of the molar value.
# Target: T1, STING (Homo sapiens, UniProt Q86WV6, H232R)
# T1 construct: gene STING1; carboxy-terminal domain (STING^R232/CTD; CTD printed as residues 149–379)
# Assay: isothermal titration calorimetry (ITC)
# Format: binding
# T1 sequence (Q86WV6 149-379 H232R): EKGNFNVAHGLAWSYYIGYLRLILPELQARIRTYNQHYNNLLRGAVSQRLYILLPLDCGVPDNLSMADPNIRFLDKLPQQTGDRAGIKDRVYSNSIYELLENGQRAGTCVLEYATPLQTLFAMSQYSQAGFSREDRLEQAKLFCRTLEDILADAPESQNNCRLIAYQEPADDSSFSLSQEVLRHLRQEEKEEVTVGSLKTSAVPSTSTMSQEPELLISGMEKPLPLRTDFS
compound,measurement,value
Nc1nc2c(ncn2[C@@H]2O[C@@H]3CO[P@](=O)(O)O[C@H]4[C@@H](O)[C@H](n5cnc6c(=O)[nH]c(N)nc65)O[C@@H]4CO[P@](=O)(O)O[C@H]3[C@H]2O)c(=O)[nH]1 [c-di-GMP],pKd,5.39
